Data on 18 sequences can be found in patent publication US20050181376A1, “Antisense modulation of microsomal triglyceride transfer protein expression” (ISIS Pharmaceuticals, Inc., priority 2001, published 2005).

Where two headings read alike, the source gives them in different places. Strand notation (5' to 3'): a small letter for the sugar, then the base; units joined by * are phosphorothioate-linked, units joined directly phosphodiester-linked; [ ] holds rarer units or linkages, { } end groups; capitals alone tell only the bases. e = 2'-O-(2-methoxyethyl) (MOE); [5mC] = 5-methylcytosine; d = 2'-deoxy (DNA)

The subject of series [1] is human microsomal triglyceride transfer protein mRNA. Kind of series: Antisense inhibition of human microsomal triglyceride transfer protein mRNA levels, quantitative real-time PCR. Note: test concentration or dose not given here. To be noted: averages from two experiments. (In qPCR the cycle at which signal appears reflects the starting amount.)
Series [2] shares this test system.

Consider “AGTGTCCCAGTGATGATCAT (antisense eA*eG*eT*eG*eT*d[5mC]*d[5mC]*d[5mC]*dA*dG*dT*dG*dA*dT*dG*eA*eT*e[5mC]*eA*eT) [ISIS 144423]”, for which, in series [1], the “% INHIB (inhibition of human microsomal triglyceride transfer protein mRNA levels)” value (“% INHIB” for short) was “at least 30%”. Regarding “ATGTGCCTTCTACCTTAAGG (antisense eA*eT*eG*eT*eG*d[5mC]*d[5mC]*dT*dT*d[5mC]*dT*dA*d[5mC]*d[5mC]*dT*eT*eA*eA*eG*eG) [ISIS 144449]”, the “% INHIB” value in series [1] is given as “at least 30%”. In the case of “CAGTGCCCAGCTAGGAGTCA (antisense e[5mC]*eA*eG*eT*eG*d[5mC]*d[5mC]*d[5mC]*dA*dG*d[5mC]*dT*dA*dG*dG*eA*eG*eT*e[5mC]*eA) [ISIS 144407]”, in series [1], the “% INHIB” value was “at least 30%”. As for “CATGCCACATTGTGTCCCTT (antisense e[5mC]*eA*eT*eG*e[5mC]*d[5mC]*dA*d[5mC]*dA*dT*dT*dG*dT*dG*dT*e[5mC]*e[5mC]*e[5mC]*eT*eT) [ISIS 144441]”, in series [1], the “% INHIB” value is given as “at least 30%”. “CCAGTTGTGTGACCTTTAAC (antisense e[5mC]*e[5mC]*eA*eG*eT*dT*dG*dT*dG*dT*dG*dA*d[5mC]*d[5mC]*dT*eT*eT*eA*eA*e[5mC]) [ISIS 144410]”: the “% INHIB” value in series [1] is listed as “at least 30%”. In the case of “CCCGTCATGCTTAAGGAAGT (antisense e[5mC]*e[5mC]*e[5mC]*eG*eT*d[5mC]*dA*dT*dG*d[5mC]*dT*dT*dA*dA*dG*eG*eA*eA*eG*eT) [ISIS 144448]”, the “% INHIB” value in series [1] was “at least 30%”. As for “CCTGGAGGATAATGCTGCTG (antisense e[5mC]*e[5mC]*eT*eG*eG*dA*dG*dG*dA*dT*dA*dA*dT*dG*d[5mC]*eT*eG*e[5mC]*eT*eG) [ISIS 144422]”, in series [1], the “% INHIB” value is listed as “at least 30%”. With “CGCTGGAAGTACTATCCGGC (antisense e[5mC]*eG*e[5mC]*eT*eG*dG*dA*dA*dG*dT*dA*d[5mC]*dT*dA*dT*e[5mC]*e[5mC]*eG*eG*e[5mC]) [ISIS 144439]”, the “% INHIB” value in series [1] is on record as “at least 30%”. For “CGCTGTGCTCTCAGAGAGCA (antisense e[5mC]*eG*e[5mC]*eT*eG*dT*dG*d[5mC]*dT*d[5mC]*dT*d[5mC]*dA*dG*dA*eG*eA*eG*e[5mC]*eA) [ISIS 144442]”, in series [1], the “% INHIB” value was “at least 30%”. Regarding “GAGCTTCATATACATTGATC (antisense eG*eA*eG*e[5mC]*eT*dT*d[5mC]*dA*dT*dA*dT*dA*d[5mC]*dA*dT*eT*eG*eA*eT*e[5mC]) [ISIS 144447]”, the “% INHIB” value in series [1] is “at least 30%”. “GATGATTCAAAATGACGCTG (chemistry not given here) [ISIS 144444]”: in series [2], the “% INHIB” value is on record as “at least 30%”. As to “GATTCCTCCATAGTAAGGCC (antisense eG*eA*eT*eT*e[5mC]*d[5mC]*dT*d[5mC]*d[5mC]*dA*dT*dA*dG*dT*dA*eA*eG*eG*e[5mC]*e[5mC]) [ISIS 144413]”, in series [1], the “% INHIB” value is “at least 30%”. On to “GCGGTAGCCCACGCTGTCTT (antisense eG*e[5mC]*eG*eG*eT*dA*dG*d[5mC]*d[5mC]*d[5mC]*dA*d[5mC]*dG*d[5mC]*dT*eG*eT*e[5mC]*eT*eT) [ISIS 144412]”, for which the “% INHIB” value in series [1] is reported as “at least 30%”. Turning to “GCTTCATCCTTGTCCATCTG (antisense eG*e[5mC]*eT*eT*e[5mC]*dA*dT*d[5mC]*d[5mC]*dT*dT*dG*dT*d[5mC]*d[5mC]*eA*eT*e[5mC]*eT*eG) [ISIS 144438]”, the “% INHIB” value in series [1] is recorded as “at least 30%”. As to “GTACTGGTTTCCAGGCCAGC (antisense eG*eT*eA*e[5mC]*eT*dG*dG*dT*dT*dT*d[5mC]*d[5mC]*dA*dG*dG*e[5mC]*e[5mC]*eA*eG*e[5mC]) [ISIS 144437]”, the “% INHIB” value in series [1] is on record as “at least 30%”.

Take “GTAGCATACTGCATATACCC (antisense eG*eT*eA*eG*e[5mC]*dA*dT*dA*d[5mC]*dT*dG*d[5mC]*dA*dT*dA*eT*eA*e[5mC]*e[5mC]*e[5mC]) [ISIS 144443]”: the “% INHIB” value in series [1] is reported as “at least 30%”.

Regarding “TCAACTGCATCCAGTGCCCA (antisense eT*e[5mC]*eA*eA*e[5mC]*dT*dG*d[5mC]*dA*dT*d[5mC]*d[5mC]*dA*dG*dT*eG*e[5mC]*e[5mC]*e[5mC]*eA) [ISIS 144408]”, in series [1], the “% INHIB” value is “at least 30%”.

As to “TCATATTGACCAGCAATCCT (antisense eT*e[5mC]*eA*eT*eA*dT*dT*dG*dA*d[5mC]*d[5mC]*dA*dG*d[5mC]*dA*eA*eT*e[5mC]*e[5mC]*eT) [ISIS 144409]”, the “% INHIB” value in series [1] is “at least 30%”.
